From US10973850B2, “Composition comprising tricalcium phosphate and gelatin for use in a method for the treatment of dyspepsia and related disorders” (S.B.M. S.R.L., priority 2015, dated 2021)

Assay: Protective effect: time to perforation of a sheet of wheat starch exposed to concentrated HCl
Settings: end point a clear-cut hole
Procedure: The barrier-like effect of gelatin was experimentally assessed. A Sheet of wheat starch was exposed to a concentrated solution of HCl. The protective action was measured as an extension of time to perforation in comparison to control. The end consisted of a clear-cut hole.
The new threshold matched the potentially dangerous HCl concentration in the stomach at the above-mentioned ration, corresponding to about 6 parts of gelatin to 1 part of TCP.

For `O=P([O-])([O-])[O-].O=P([O-])([O-])[O-].[Ca+2].[Ca+2].[Ca+2]` [TCP, tricalcium phosphate], the “protective action, extension of time to perforation in comparison to control” value was “almost equally effective”.
